Experimental findings from ChEMBL document CHEMBL1201862, “PubChem BioAssay data set” (2004) are described below.

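Step 1: Grow cells in 96-well plates. Step 2: Expose to compound for 48 hours at 5 concentrations. Step 3: Interpolate endpoints linearly; if unreached, use highest concentration. Here, GI50 denotes the concentration required for 50% inhibition of growth.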 Active and inactive are the calls of the source. No stated cut-off is given here; in the data, active = GI50 up to about 1.1 µM and inactive = higher.

Assay in all cases: NCI tumour cell line growth inhibition, 48 h
In experiment [1] the test system is A498.
The test system of experiment [2] is DMS-273.
Experiment [3] relates to CAKI-1.
Experiment [4] concerns Malme-3M.
The test system of experiment [5] is HL-60.
In experiment [6] the test system is M14.
Experiment [7] has as its system COLO 205.
Experiment [8] relates to DMS-114.
Experiment [9] concerns RPMI-8226.
Experiment [10] concerns SF-268.
Experiment [11] relates to OVCAR-8.
Experiment [12] has as its system CCRF-CEM.
In experiment [13] the test system is RXF 393.
The test system of experiment [14] is DLD-1.
Experiment [15] relates to SR.
Experiment [16] has as its system HCT-116.
Experiment [17] has as its system KM-20L2.
The test system of experiment [18] is MCF7.
For experiment [19], the system named is NCI/ADR-RES.
Experiment [20] has as its system T47D.

As to `CO/C(=N\N=C\c1ccc(Cl)cc1)c1ccncc1`, the GI50 in experiment [1], in experiment [2], in experiment [3], in experiment [4], in [5] and in experiment [6] was > 100 µM (inactive) throughout. For the same molecule, the GI50 in experiment [7], in experiment [8], in experiment [9], in [10], in experiment [11] and in [12] was > 100 µM (inactive) in each case. The GI50 in [13], in experiment [14], in experiment [15], in experiment [16] and in experiment [17] was > 100 µM (inactive) in each case.
In the case of `N#Cc1ccc([N+](=O)[O-])cc1NC(N)=S`, the GI50 in experiment [1], in experiment [2], in [3], in experiment [4], in [6] and in experiment [7] was > 100 µM (inactive) each time. The GI50 in experiment [9], in experiment [10], in [11], in [15], in [16] and in experiment [17] was > 100 µM (inactive) in each case.
As to `N/C(=N/O)N/N=C\c1cc(Cl)cc(Cl)c1O`, the GI50 in [1] was 6.38 µM (inactive); in experiment [2], 0.347 µM (active); in experiment [3], 1.09 µM (active); in [4], 4.86 µM (inactive); in [5], 0.0116 µM (active); in [18] it was 0.428 µM (active). The GI50 was 5.7 µM (inactive) in experiment [7]; 3.99 µM (inactive) in experiment [9]; 1.4 µM (inactive) in [10]; 2.38 µM (inactive) in experiment [11]; 0.193 µM (active) in experiment [12]; 5.05 µM (inactive) in experiment [13]. For the same molecule, the GI50 in experiment [14] was 7.48 µM (inactive); in experiment [19], 1.32 µM (inactive); in [16], 1.36 µM (inactive); in [17] it was 5.57 µM (inactive).
For `CCn1cnnc1-c1nsc2ccccc12`, the GI50 in [2], in experiment [5], in experiment [6], in experiment [7], in [8] and in [9] was > 100 µM (inactive) each time. The GI50 is > 100 µM (inactive) in [10]; > 100 µM (inactive) in [11]; > 100 µM (inactive) in [12]; 23.2 µM (inactive) in experiment [13]; > 100 µM (inactive) in experiment [15]; > 100 µM (inactive) in [16]. The GI50 in experiment [17] was > 100 µM (inactive).
Turning to `COCOc1ccc(OC)cc1`, the GI50 in experiment [1], in experiment [2], in [3], in experiment [4], in experiment [5] and in experiment [18] was > 100 µM (inactive) each time. In addition, the GI50 in experiment [7], in experiment [9], in experiment [10], in experiment [11], in experiment [12] and in [13] was > 100 µM (inactive) each time. For the same molecule, the GI50 in experiment [14], in experiment [19], in experiment [16] and in [17] was > 100 µM (inactive) throughout.
Regarding `CC[C@@H]1ON(C)[C@H]2CN(C)C(=O)[C@@H]12`, the GI50 in experiment [3], in experiment [5], in experiment [18], in experiment [6], in experiment [7] and in experiment [9] was > 100 µM (inactive) each time. In addition, the GI50 in [11], in experiment [12], in experiment [15], in experiment [19], in experiment [16] and in experiment [20] was > 100 µM (inactive) throughout.
Consider `COc1ccc(C2C(Cl)C(=O)N2NC(=O)c2ccc(NC(C)=O)cc2)cc1OC` (centres undefined), for which the GI50 in experiment [4], in experiment [5], in experiment [7], in experiment [9], in [10] and in [11] was > 100 µM (inactive) each time. Besides, the GI50 in experiment [12], in [15] and in experiment [16] was > 100 µM (inactive) in each case.
Regarding `O=c1n(Cc2ccccc2)c2ccccc2n1CC1CS1` (centres undefined), the GI50 in experiment [2], in [3], in [4], in experiment [5], in [6] and in [7] was > 100 µM (inactive) each time. The GI50 in experiment [8], in experiment [9], in experiment [10], in [11], in experiment [12] and in [15] was > 100 µM (inactive) each time. The GI50 in experiment [16] and in experiment [17] was > 100 µM (inactive) each time.
As to `Nc1c(-c2ccccc2[N+](=O)[O-])nc2ccccn12`, the GI50 in experiment [2], in experiment [4], in [5], in experiment [6], in experiment [7] and in experiment [8] was > 100 µM (inactive) each time. Also, the GI50 in experiment [9], in experiment [10], in [11], in [12], in [13] and in [14] was > 100 µM (inactive) in each case. In addition, the GI50 in experiment [15], in experiment [16] and in [17] was > 100 µM (inactive) throughout.
As for `CCOC(=O)c1cc(Cl)ccc1OC(N)=O`, the GI50 in [1], in experiment [2], in [3], in experiment [5], in experiment [18] and in experiment [7] was > 100 µM (inactive) each time. Further, the GI50 in experiment [8], in [9], in [10], in experiment [11], in [12] and in experiment [13] was > 100 µM (inactive) throughout. In addition, the GI50 in [14], in experiment [19], in [16] and in experiment [17] was > 100 µM (inactive) throughout.
As for `CC1(C)OCC=CCO1`, the GI50 in experiment [3] was > 100 µM (inactive); in experiment [4], > 100 µM (inactive); in experiment [5], 71.4 µM (inactive); in experiment [18], 56 µM (inactive); in experiment [6] it was > 100 µM (inactive); in experiment [7] it was > 100 µM (inactive). Further, the GI50 in [9] was > 100 µM (inactive); in experiment [10], > 100 µM (inactive); in experiment [11], > 100 µM (inactive); in experiment [12], 62.5 µM (inactive); in experiment [13], > 100 µM (inactive); in experiment [19] it was > 100 µM (inactive). In addition, the GI50 in experiment [16] and in [20] was > 100 µM (inactive) in each case.
